Source: patent US10011877B2, “Treatment of bladder cancer to overcome chemoresistance” (Genedia Biotech Co., Ltd., priority 2015, dated 2018)

Assays:
[1] = test system: 5637 cell-derived tumor xenograft; assay: 5637-derived tumor xenografts in nude mice, tumor weight day 25; assay type: in vivo, BALB/c male nude mice; conditions: 5637 tumors, Pa 45 ug/mouse intraperitoneal once in 2 days
Source text: (§1) Animal experiments were undertaken in accordance with the National Institutes of Health Guide for the Care and Use of Laboratory Animals. BALB/c male nude mice aged of 8-12 weeks were used for this study. 5637 or H-bc cells were embedded in BD Matrigel Matrix (Becton, Dickinson, Franklin Lakes, N.J., USA) and subcutaneously injected into the four sites at the back of mice as following: 1.7×10^7 cells/site for 5637, 0.7×10^7 cells/site for H-bc, 4 sites/mouse, 6 mice for 5637, 6 mice for H-bc, respectively. From the fourth day after cell injection, all 5637-generated tumors were intratumorally injected with 2 nM miR-193a-3p agomiR or miR-193a-5p agomiR, while H-bc-generated tumors were injected with 4 nM miR-193a-3p/-5p/Mock antagomiR/PBS in a similar manner. From the sixth day after cell injection, three mice from 5637 and three from H-bc intraperitoneally received Pa (45 ug/mouse) once in 2 days. The remaining six mice (three from 5637 and three from H-bc) received PBS as a mock treatment control. Mice were humanely killed on day 25, and the tumors were weighed and photographed. The tumor weight was described as the mean±S.D.
(§2) Animal experiments were undertaken in accordance with the National Institutes of Health Guide for the Care and Use of Laboratory Animals. BALB/c male nude mice of 8-12 weeks of age were used for this study. […]

[2] = test system: H-bc-derived tumor xenografts; assay: H-bc-derived tumor xenografts in nude mice, tumor weight day 25; assay type: in vivo, BALB/c male nude mice; conditions: H-bc tumors, Pa 45 ug/mouse intraperitoneal once in 2 days
Source text: as §1, §2

Structure (SMILES): CC(=O)O[C@H]1C(=O)[C@@]2(C)[C@H]([C@H](OC(=O)c3ccccc3)[C@]3(O)C[C@H](OC(=O)[C@H](O)[C@@H](NC(=O)c4ccccc4)c4ccccc4)C(C)=C1C3(C)C)[C@]1(OC(C)=O)CO[C@@H]1C[C@@H]2O [Pacilitaxol, Paclitaxel]
- tumor weight ratio of the Pa treated over PBS treated [1]: 0.283
- tumor weight ratio of the Pa treated over PBS treated [2]: 0.40
